Test results from patent publication US20250099411A1, “Methods of Treatment of Inflammation Related Conditions Using Pluripotent Anti-Inflammatory and Metabolic Modulators” (Institut Pasteur de Montevideo, priority 2018, published 2025).

Experiments:
[1] = system: Nrf2/Keap I-dependent gene expression; test: Nrf2/Keap I-dependent phase two enzyme gene expression (HO-I, GCLM, NQO I qPCR) in Hep G2 cells; type: cell-based; details: Hep G2, five hours, SANA 0.1 mM, Salicylic Acid 0.2 and 5 mM
Protocol: FIGS. 6 and 7 show induction of phase two enzymes Nrf2/Keap I-dependent gene expression by SANA but not by SA Hep G2 cells were treated with SANA (0.1 mM) or Salicylic Acid (0.2 and 5 mM) for five hours. mRNA was extracted from the cells and was measured HO-I, GCLM and NQO I gene expression by qPCR.

inflammasome = test: Inflammasome inhibition (IL-lb ELISA) in THP-1 cells differentiated into macrophages, LPS then ATP; type: cell-based, human; details: for inhibition of the inflammasome (IL-lb), applied with the second signal: together with ATP (5 mM, 45 minutes) after LPS, SANA 0.05-0.25 mM, SA 0.25 mM; for inhibition of the inflammasome (IL-lb), applied with the first signal: together with LPS (250 ng/ml, 3 hs.), then ATP 5 mM 45 minutes, SANA 0.05-0.25, SA 0.25 mM
Protocol: In FIGS. 8 and 9 show the inhibition of inflammasome in THP-1 cells differentiated into macrophages (PMA 200 nM, 48 hs.) by SANA but not by SA when applied together with the first (FIG. 8) or the second (FIG. 9) signal. In FIG. 8 cells were treated with Salicylic acid (0.25 mM) or SANA (0.05; 0.125 and 0.25) together with LPS stimulation. The cells were stimulated with LPS (250 ng/ml, 3 hs.) and then with ATP (5 mM, 45 minutes). Supernatant was collected and IL-lb measured by ELISA Cell viability was assessed by MTT assay. […] In FIG. 9 THP-1 cells were differentiated into macrophages with PMA (200 nM, 48 hs.). Cells were stimulated with LPS (250 ng/ml, 3 hs.) and then with ATP (5 mM, 45 minutes). Together with ATP treatment, cells were then treated with NAT×ME (10 uM), Salicylic acid (0.25 mM) or SANA (0.05; 0.125 and 0.25 mM). Supernatant was collected and IL-lb secretion was measured by ELISA Cell viability was assessed by the MTT assay.

[2] = Magnetic resonance imaging (MRI) of fat content; type: in vivo; details: mice
Excerpt: (§1) While not wishing to be bound by theory, thermogenesis and weight loss are a result of AMPK activation together with white adipose tissue and mitochondrial uncoupling. […] SANA's beneficial effects also include reducing adverse effects related to obesity. […] FIGS. 22 and 23, compare the body temperatures of mice on normal diets (“ND”), HFD, and HFD with administration of SANA.

GAPDH = GAPDH (Homo sapiens, UniProt P04406); test: GAPDH activity; type: biochemical
[3] = Skin allograft rejection, male tail skin grafted onto female mice; type: in vivo, C57BL/6 mice; details: 100 mg/kg oral gavage daily, day -1 to day 15
Protocol: C57BL/6 female mice were grafted with skin from the tails of C57BL/6 male mice. The skin graft is a small'square (1 cm^2 and it was implanted onto the left subscapular region of the female mice. From one day before the transplantation until 15 days after it, the mice were treated daily with SANA (100 mg/kg, by oral gavage; SANA group) or vehicle (Control group). The vehicle used was a solution of Carboxy-Methyl-cellulose 0.5% m/v and Tween 80 0.5% v/v. At the end of the 15th day of administration, allografts were checked every 48/72 hours to assess the condition of the grafted skin. Rejection was diagnosed clinically when the allograft lost more than 50% of its size and/or more than I 0% of allograft was necrotic.
The study followed the protocol described above for FIG. I, but further included a Salicylate group. C57BL/6 female mice were grafted with skin from the tails of C57BL/6 male mice. The skin graft is a small square (1 cm^2 and it was implanted onto the left subscapular region of the female mice. From one day before the transplantation until 15 days after it, the mice were treated daily with Salicylate (100 mg/kg, by oral gavage; Salicylate group), SANA (100 mg/kg, by oral gavage; SANA group) or vehicle (Control group). The vehicle used was a solution of
Carboxy-Methyl-cellulose 0.5% m/v and Tween 80 0.5% v/v. […]

[4] = Stopped-flow kinetics of the reaction with BME; type: physicochemical; details: 25° C., triplicate, BME 0.54-2.73 mM, absorbance at 260 nm
Protocol: In FIG. 2, it is shown that the reaction between SANA and BME was determined to be a second order rate constant. Stopped-flow kinetic measurements were performed using an Rx 2000 stopped flow analyzer (Applied Photophysics). Mixtures of 150 μL NATx0 (25 μM) and solutions of BME at 0.54 mM, 1.09 mM, 1.64 mM, 2.18 mM, and 2.73 mM concentrations.
The reaction was monitored by following the absorbance at 260 nm and plots were fitted to a simple exponential decay function using Originlab software (version 8.0.). The observed pseudo first order constant at each concentration of BME was extracted from the equation and plotted against the concentration of BME. The second rate constant of the reaction is derived from the slope of the curve and was 182±6 M·^1s·^1. All experiments were carried out at 25° C. by triplicate.

[5] = Thermogenesis / body temperature of mice on HFD; type: in vivo
Excerpt: as §1

[6] = Thermogenesis and weight loss in mice on a normal diet; type: in vivo
Excerpt: as §1

[7] = Body weight of mice fed a high-fat diet; type: in vivo
Excerpt: as §1

[8] = Glucose tolerance test in HFD obese mice; type: in vivo; details: mice under HFD up to 7 months, 100 mg/kg gavage every day during four weeks
Protocol: Mice under HFD for up to 7 months (mean weight around 40 gr.) were treated with SANA (100 mg/kg; gavage) or phosphate buffer (control) every day during four weeks. The glucose tolerance test were run as per well-known standard procedures.

11-lb secretion = test: LPS-induced 11-lb secretion into the peritoneum in vivo

GAPDH, sequence (P04406 whole entry, species assumed): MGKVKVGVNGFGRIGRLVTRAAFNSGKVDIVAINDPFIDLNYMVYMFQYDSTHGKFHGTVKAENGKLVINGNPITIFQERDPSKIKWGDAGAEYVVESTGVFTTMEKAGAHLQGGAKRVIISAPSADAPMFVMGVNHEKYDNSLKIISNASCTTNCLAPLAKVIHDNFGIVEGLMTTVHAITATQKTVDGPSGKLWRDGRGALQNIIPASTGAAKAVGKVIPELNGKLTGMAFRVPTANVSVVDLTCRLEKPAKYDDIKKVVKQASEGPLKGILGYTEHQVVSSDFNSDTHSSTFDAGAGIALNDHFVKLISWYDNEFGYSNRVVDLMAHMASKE

## O=C(O)c1ccccc1O [SA, salicylic acid, reference compound]
[1]
  induction of phase two enzymes Nrf2/Keap I-dependent gene expression: not by SA
inflammasome
  inhibition of the inflammasome (IL-lb), applied with the second signal: cannot inhibit
  inhibition of the inflammasome (IL-lb), applied with the first signal: cannot inhibit

## O=C(O)c1cc(/C=C/[N+](=O)[O-])ccc1O [SANA, 2-hydroxy-5-(2-nitroethenyl)benzoic acid]
[2]
  fat content (MRI): induces loss of fat content
GAPDH
  GAPDH activity: does not inhibit
[3]
  skin allograft rejection compared to salicylic acid: significant reduction in skin allograft rejection
  survival of grafted skin versus control group: prolonged survival of grafted skin
[4]
  second rate constant of the reaction with BME: 182±6 M·^1s·^1
[5]; HFD with SANA versus ND mice and HFD mice
  body temperature: higher body temperatures than that of ND mice and HFD mice
[5]; mouse, in vivo
  thermogenesis: inducing thermogenesis
[1]
  induction of phase two enzymes Nrf2/Keap I-dependent gene expression: induction
[6]
  thermogenesis: does not induce
  weight loss: does not induce
inflammasome
  inhibition of the inflammasome (IL-lb), applied with the second signal: potent inhibitor
  inhibition of the inflammasome (IL-lb), applied with the first signal: potent inhibitor
[7]; mice fed high-fat diet, 29 weeks
  rate of weight gain: reduced the rate of weight gain
[7]; mouse, in vivo
  dose dependence of the effect on obesity: dose response effect
[8]
  insulin resistance (glucose tolerance test): reverses insulin resistance
11-lb secretion
  LPS-induced 11-lb secretion into the peritoneum: decreases
